In ChEMBL document CHEMBL1201862, “PubChem BioAssay data set” (2004):
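Compound exposure: 48 hours, 5 concentrations, 96-well plates. GI50: concentration for 50% inhibition of growth.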 Activity calls are given as the source filed them. No stated cut-off is given here; in the data, active = GI50 up to about 1.1 µM and inactive = higher.

Columns and labels:
Experiment in all cases: NCI-60 cell line screen, 48 h
[1] = system: RPMI-8226
[2] = system: SW-620
[3] = system: SNB-19
[4] = system: Malme-3M
[5] = system: SN12C
[6] = system: MOLT-4
[7] = system: SF-295
[8] = system: SR
[9] = system: TK-10
[10] = system: NCI-H23
[11] = system: NCI-H460
[12] = system: HOP-92
[13] = system: EKVX
[14] = system: HL-60
[15] = system: OVCAR-4
[16] = system: M14

Row | Structure (SMILES) | GI50 [1] | GI50 [2] | GI50 [3] | GI50 [4] | GI50 [5] | GI50 [6] | GI50 [7] | GI50 [8] | GI50 [9] | GI50 [10] | GI50 [11] | GI50 [12] | GI50 [13] | GI50 [14] | GI50 [15] | GI50 [16]
1 | [O-][n+]1c2cc(CBr)c(CBr)cc2[n+]([O-])c2c(O)cccc21 | 1.53 µM (inactive) | 1.56 µM (inactive) | 5.26 µM (inactive) | 1.91 µM (inactive) | 1.73 µM (inactive) | 0.344 µM (active) | 1.84 µM (inactive) | 0.248 µM (active) | 6.07 µM (inactive) | 2.72 µM (inactive) | 1.91 µM (inactive) | 1.05 µM (active) | 6.05 µM (inactive) | 0.388 µM (active) | 1.8 µM (inactive) | 1.75 µM (inactive)
2 | COc1ccccc1OCC(COC(=O)Nc1ccc(C)cc1)OC(=O)Nc1ccc(C)cc1 (stereo not given) | 16.3 µM (inactive) | 14.9 µM (inactive) | 18.7 µM (inactive) | 17.4 µM (inactive) | 17.9 µM (inactive) | 18.9 µM (inactive) | 21.9 µM (inactive) | 22.4 µM (inactive) | 18.4 µM (inactive) | 23.2 µM (inactive) | 16.7 µM (inactive) | 7.59 µM (inactive) | 25 µM (inactive) | 15 µM (inactive) |  | 19.2 µM (inactive)
3 | CC1(C(=O)O)CCC[C@@]2(C)C1CC[C@@]1(C)c3cocc3CCC21 (stereo not given in full) | > 100 µM (inactive) | > 100 µM (inactive) | > 100 µM (inactive) | > 100 µM (inactive) | > 100 µM (inactive) | > 100 µM (inactive) | > 100 µM (inactive) | > 100 µM (inactive) | > 100 µM (inactive) | > 100 µM (inactive) | > 100 µM (inactive) | > 100 µM (inactive) | > 100 µM (inactive) | > 100 µM (inactive) | > 100 µM (inactive) | > 100 µM (inactive)
4 | CC1=CCN(c2ccccn2)OC1c1ccccc1 (stereo not given) | 66.8 µM (inactive) | > 100 µM (inactive) | > 100 µM (inactive) | > 100 µM (inactive) | > 100 µM (inactive) | > 100 µM (inactive) | > 100 µM (inactive) | 59.3 µM (inactive) |  | > 100 µM (inactive) | > 100 µM (inactive) |  | > 100 µM (inactive) | 66.8 µM (inactive) | > 100 µM (inactive) | > 100 µM (inactive)
5 | CC1/C=C/[C@@]2(C)CCC(C(C)(C)O)C2C(O)C[C@](C)(O)/C=C/C1 (stereo not given in full) | > 100 µM (inactive) | > 100 µM (inactive) | > 100 µM (inactive) | > 100 µM (inactive) | > 100 µM (inactive) | > 100 µM (inactive) | > 100 µM (inactive) | 66.5 µM (inactive) | > 100 µM (inactive) | > 100 µM (inactive) | > 100 µM (inactive) | > 100 µM (inactive) | > 100 µM (inactive) | 86.1 µM (inactive) | > 100 µM (inactive) | > 100 µM (inactive)
6 | COC(=O)/C(=N\N)C(C(=O)C(=O)Nc1nnc(S)[nH]1)c1nc2ccc([N+](=O)[O-])cc2nc1O (stereo not given) | > 100 µM (inactive) | > 100 µM (inactive) | > 100 µM (inactive) | > 100 µM (inactive) | > 100 µM (inactive) | > 100 µM (inactive) | > 100 µM (inactive) | > 100 µM (inactive) | > 100 µM (inactive) | > 100 µM (inactive) | > 100 µM (inactive) | > 100 µM (inactive) | > 100 µM (inactive) | > 100 µM (inactive) | > 100 µM (inactive) | > 100 µM (inactive)
7 | C[N+](C)(C)CC(=O)N/N=C(/Cc1nc2ccc(Cl)cc2nc1O)C1=NS(=O)(=O)c2cc(S(N)(=O)=O)c(Cl)cc2N1 | > 100 µM (inactive) | > 100 µM (inactive) | > 100 µM (inactive) | > 100 µM (inactive) | > 100 µM (inactive) | > 100 µM (inactive) | > 100 µM (inactive) | > 100 µM (inactive) | > 100 µM (inactive) | > 100 µM (inactive) | > 100 µM (inactive) |  | 6.75 µM (inactive) | > 100 µM (inactive) | > 100 µM (inactive) | 
8 | O=c1[nH]nc(-c2ccccc2)c(-c2ccccc2)c1-n1nc(-c2ccccc2)c2ccccc2c1=O | 32 µM (inactive) | 99.5 µM (inactive) |  | > 100 µM (inactive) | > 100 µM (inactive) | 17 µM (inactive) | 43.2 µM (inactive) | 52.1 µM (inactive) | > 100 µM (inactive) | > 100 µM (inactive) | 90.6 µM (inactive) | 75.5 µM (inactive) | > 100 µM (inactive) |  | > 100 µM (inactive) | > 100 µM (inactive)
9 | O=C1N=C2Sc3ccc4ccccc4c3N2C1=O | > 100 µM (inactive) | 21.4 µM (inactive) | 20.4 µM (inactive) | 19.1 µM (inactive) | 20.3 µM (inactive) | 44.4 µM (inactive) | 18.6 µM (inactive) | > 100 µM (inactive) | 34.4 µM (inactive) | 22.5 µM (inactive) | 25.1 µM (inactive) | 15 µM (inactive) | 16.1 µM (inactive) | 43.6 µM (inactive) | 17 µM (inactive) | 26.1 µM (inactive)
10 | CCOc1ccccc1NC(=O)C(=O)C(C(=O)c1ccc2ccccc2c1)C1OC(=O)c2ccccc21 (stereo not given) | 6.08 µM (inactive) | 6.31 µM (inactive) | 4.53 µM (inactive) | 14.3 µM (inactive) | 15.5 µM (inactive) | 3.37 µM (inactive) |  |  | 24.4 µM (inactive) | 7.64 µM (inactive) | 6.68 µM (inactive) | 10.5 µM (inactive) | 22.2 µM (inactive) | 10 µM (inactive) | 4.61 µM (inactive) | 15.9 µM (inactive)
11 | O=C1OC2C=CC1C1(CCOC1=O)C2 (stereo not given) | > 100 µM (inactive) | > 100 µM (inactive) | > 100 µM (inactive) | > 100 µM (inactive) | > 100 µM (inactive) | > 100 µM (inactive) |  | > 100 µM (inactive) | > 100 µM (inactive) | > 100 µM (inactive) | > 100 µM (inactive) | > 100 µM (inactive) | > 100 µM (inactive) | > 100 µM (inactive) | > 100 µM (inactive) | > 100 µM (inactive)
12 | CCCCCCCCCCCCCC(=O)OCC1OC(OC)C(NC(=O)N(CCCl)N=O)C(O)C1O (stereo not given) | 11.4 µM (inactive) | 8.79 µM (inactive) | 18.5 µM (inactive) | 27 µM (inactive) | 25.5 µM (inactive) | 2.06 µM (inactive) | 7.43 µM (inactive) | 3.71 µM (inactive) | 37.9 µM (inactive) | 12.9 µM (inactive) | 4.93 µM (inactive) |  |  |  | 20.6 µM (inactive) | 17.2 µM (inactive)
13 | COc1cc2c(c(OC)c1OC)-c1ccc(SC)c(=O)cc1[C@@H](NCc1cccc([N+](=O)[O-])c1)CC2 |  | < 0.01 µM (active) | < 0.01 µM (active) | < 0.01 µM (active) | < 0.01 µM (active) | < 0.01 µM (active) | < 0.01 µM (active) | > 100 µM (inactive) | < 0.01 µM (active) | < 0.01 µM (active) | < 0.01 µM (active) | < 0.01 µM (active) | < 0.01 µM (active) | < 0.01 µM (active) | < 0.01 µM (active) | < 0.01 µM (active)
14 | Nc1nc[n+](Cc2ccccc2)c2ncn(Cc3ccccc3)c12 |  | > 100 µM (inactive) | > 100 µM (inactive) | 84.3 µM (inactive) | > 100 µM (inactive) |  | 63.8 µM (inactive) | 35.3 µM (inactive) | 28.4 µM (inactive) | 97.7 µM (inactive) | > 100 µM (inactive) | 19.2 µM (inactive) | > 100 µM (inactive) | 32.3 µM (inactive) | > 100 µM (inactive) | 23.7 µM (inactive)
15 | O=C1/C(=C\c2ccccc2)c2ccccc2N1/N=C\c1ccccc1 | 57.3 µM (inactive) | 59 µM (inactive) | > 100 µM (inactive) | > 100 µM (inactive) | > 100 µM (inactive) | 22.5 µM (inactive) | > 100 µM (inactive) |  | > 100 µM (inactive) | > 100 µM (inactive) | > 100 µM (inactive) | > 100 µM (inactive) | 23.2 µM (inactive) |  | > 100 µM (inactive) | > 100 µM (inactive)
16 | O=C(Nc1nnc(S)[nH]1)C(=O)C1C(=O)Nc2ccccc2[S+]1[O-] (stereo not given) |  | > 100 µM (inactive) | > 100 µM (inactive) | > 100 µM (inactive) | > 100 µM (inactive) | > 100 µM (inactive) | > 100 µM (inactive) | > 100 µM (inactive) | > 100 µM (inactive) | > 100 µM (inactive) | > 100 µM (inactive) | > 100 µM (inactive) | > 100 µM (inactive) | > 100 µM (inactive) | > 100 µM (inactive) | > 100 µM (inactive)
17 | c1ccc(SC(CCCCC(Sc2ccccc2)Sc2ccccc2)Sc2ccccc2)cc1 | > 100 µM (inactive) | > 100 µM (inactive) | > 100 µM (inactive) |  | > 100 µM (inactive) | > 100 µM (inactive) | > 100 µM (inactive) | > 100 µM (inactive) | > 100 µM (inactive) | > 100 µM (inactive) | > 100 µM (inactive) | > 100 µM (inactive) | > 100 µM (inactive) | > 100 µM (inactive) | > 100 µM (inactive) | > 100 µM (inactive)
18 | COc1ccc2oc(-c3ccc(OC)c(OC)c3OC)cc(=O)c2c1 | 17 µM (inactive) | 65.2 µM (inactive) | 18.9 µM (inactive) | 40.7 µM (inactive) | 53.3 µM (inactive) |  | 51.6 µM (inactive) |  | 36.3 µM (inactive) | 43.3 µM (inactive) |  | 50.6 µM (inactive) | 33.1 µM (inactive) | 18.6 µM (inactive) | 38.7 µM (inactive) | 55.3 µM (inactive)
